Assay results published in patent US8536225B2, “Therapeutic methods employing nitric oxide precursors” (Vanderbilt University, priority 1999, dated 2013).

Legend:
Format in all cases: in vivo, Duroc swine
[1] = Serum arginine levels after intravenous citrulline in piglets; details: citrulline 600 mg/kg IV
Method: (§1) Intravenous citrulline has not been previously used in a clinical model. This Example assessed the safety of IV citrulline and its effect on serum arginine levels in piglets. A total of 9 Duroc swine, aged 5-21 days, with a target minimum weight of 4 kg were utilized. All piglets underwent anesthetic induction and tracheostomy. Central lines were placed in the femoral artery and femoral vein and hemodynamics monitored continuously. Citrulline (600 mg/kg IV) was administered to 5 piglets. Saline was given to control animals. Serum amino acids were drawn before and each hour after citrulline administration.

[2] = Hemodynamic monitoring (mean arterial blood pressure) after IV citrulline in piglets; details: citrulline 600 mg/kg IV
Method: as §1

[3] = Pharmacokinetics of plasma citrulline and arginine after single dose of IV citrulline; details: piglets, single dose IV citrulline 600 mg/kg
Method: as §1
Pharmacokinetics: Based on the above data, the pharmacokinetics were calculated for both plasma citrulline and arginie levels after the single dose of IV citrulline. Pharmacokinetic data included plasma half-life (t½), elimination constant (Kel), volume of distribution (Vd), and plasma clearance (CLp).

## NC(=O)NCCC[C@H](N)C(=O)O [Citrulline, citrulline]
[1]
  Time of peak serum arginine levels following IV citrulline administration: 1 to 2 h
[1]; 1 hour post, serum
  Arginine Levels Following IV Citrulline, 1 hour post: 535.0 µmol/L
[1]; 2 hours post, serum
  Arginine Levels Following IV Citrulline, 2 hours post: 559.8 µmol/L
[1]; 3 hours post, serum
  Arginine Levels Following IV Citrulline, 3 hours post: 498.4 µmol/L
[1]; baseline (before administration), serum
  Arginine Levels Following IV Citrulline, Baseline: 131.5 µmol/L
[2]; 1 hour post
  Mean Arterial Blood Pressures Following IV Citrulline, 1 hour post: 67.4 mmHg
[2]; 2 hours post
  Mean Arterial Blood Pressures Following IV Citrulline, 2 hours post: 64.8 mmHg
[2]; 3 hours post
  Mean Arterial Blood Pressures Following IV Citrulline, 3 hours post: 62.2 mmHg
[2]; hemodynamics monitored continuously
  Hemodynamic instability: No hemodynamic instability was observed
[2]; pre-dose
  Mean Arterial Blood Pressures Following IV Citrulline, Pre-dose: 67.0 mmHg
[3]; Duroc, pig, plasma, read-out: Plasma citrulline half-life (t½) (converted)
  half-life: 90 min
[3]; Duroc, pig, plasma, read-out: Plasma citrulline plasma clearance (CLp) (converted)
  clearance: 17.5 mL/min
[3]; Duroc, pig, plasma, read-out: Plasma citrulline volume of distribution (Vd)
  Vd: 2.25 L
[3]
  Plasma citrulline elimination constant (Kel): 0.462 h⁻¹
